Source: publication PMC3509384 (Anesthesiology, 2012)
Like-named read-outs stand apart in the source and are kept apart here.

Tests used:
rats = test: Loss of righting reflexes; assay type: in vivo, Sprague-Dawley rats; conditions: for death of rat after dosing: one rat, 20 mg/kg dose; for death of rat after dosing / Slope of Duration vs. Log Dose ± SD / ED50 ± SD for loss of righting reflexes (LORR): intravenous bolus; for Slope of Duration vs. Log Dose ± SD / ED50 ± SD for loss of righting reflexes (LORR) / R/S ED50 ratio: rats; for Slope of Duration vs. Log Dose ± SD: duration of LORR vs logarithm of dose; for ED50 ± SD for loss of righting reflexes (LORR): method of Waud; for R/S ED50 ratio: ED50 for LORR of (R)-form versus (S)-form of the diastereometric pair
[1] = Octanol:water partition coefficient; assay type: physicochemical; conditions: water buffered with 10 mM Tris (pH 7.4)
[2] = In vitro metabolic half-life in pooled rat blood; assay type: in vitro ADME, Sprague-Dawley rats; conditions: for Blood Half-Life (95% CI): pooled rat blood, 37°C, 200 µM
[3] = ref Pejo et al.[8]; cited from earlier work

Row | Molecule | death of rat after dosing (rats) | Slope of Duration vs. Log Dose ± SD (rats) | ED50 ± SD for loss of righting reflexes (LORR) (rats) | Octanol/Water Partition Coefficient ± SD [1] | Blood Half-Life (95% CI) [2] | Octanol/Water Partition Coefficient ± SD [3] | half-life at 200 µM ([2]; Sprague-Dawley, rat, pooled heparinised whole blood) | R/S ED50 ratio (rats)
1 | COC(=O)CCOC(=O)c1cncn1[C@@H](c1ccccc1)C(C)C [(R)-isopropyl- methoxycarbonyl metomidate] | died | 6.6 ± 1.3 min/(log mg/kg) | 3.6 ± 0.8 mg/kg | 3830 ± 310 | 0.15 (0.15–0.16) min | – | – | –
2 | COC(=O)[C@@H](C)OC(=O)c1cncn1[C@H](C)c1ccccc1 [(R)-methyl- methoxycarbonyl metomidate] | – | 4.6 ± 0.7 min/(log mg/kg) | 9.6 ± 1.9 mg/kg | 380 ± 15 | <0.03 min | – | – | –
3 | COC(=O)CCOC(=O)c1cncn1[C@H](c1ccccc1)C(C)C [(S)-isopropyl- methoxycarbonyl metomidate] | – | 12.1 ± 1.1 min/(log mg/kg) | 1.2 ± 0.19 mg/kg | 2860 ± 67 | 15.5 (11.6–23.1) min | – | – | –
4 | COC(=O)[C@H](C)OC(=O)c1cncn1[C@H](C)c1ccccc1 [(S)-methyl- methoxycarbonyl metomidate] | – | 1.9 ± 0.2 min/(log mg/kg) | 3.5 ± 0.4 mg/kg | 330 ± 16 | 0.14 (0.08–0.62) min | – | – | –
5 | COC(=O)C(C)(C)OC(=O)c1cncn1[C@H](C)c1ccccc1 [Dimethyl- methoxycarbonyl metomidate] | died | 9.6 ± 0.8 min/(log mg/kg) | 0.72 ± 0.16 mg/kg | 660 ± 110 | 8.7 (7.4–10.7) min | – | – | –
6 | CCOC(=O)c1cncn1[C@H](C)c1ccccc1 [Etomidate, (R)-ethyl-1-(1-phenylethyl)-1H-imidazole-5-carboxylate, reference compound] | – | 24.6 ± 4.7 min/(log mg/kg) | – | – | – | 800 ± 180 | – | –
7 | COC(=O)CCOC(=O)c1cncn1[C@H](C)c1ccccc1 [Methoxycarbonyl etomidate] | – | 1.0 ± 0.3 min/(log mg/kg) | 5.3 ± 1.5 mg/kg | 190 ± 25 | 0.41 (0.31–0.60) min | – | – | –
8 | COC(=O)COC(=O)c1cncn1[C@H](C)c1ccccc1 [Methoxycarbonyl metomidate] | – | 1.6 ± 0.4 min/(log mg/kg) | 11.1 ± 0.8 mg/kg | 159 ± 15 | <0.03 min | – | – | –
9 | COC(=O)c1cncn1C(C)c1ccccc1 (stereo not drawn) [Metomidate, reference compound] | – | 33.0 ± 3.9 min/(log mg/kg) | – | – | – | – | 2.38 h | –
10 | COC(=O)C(OC(=O)c1cncn1C(C)c1ccccc1)C(C)C (stereo not drawn) [isopropyl-methoxycarbonyl metomidate] | – | – | – | – | – | – | – | 3.0
11 | COC(=O)[C@H](C)COC(=O)c1cncn1[C@H](C)c1ccccc1 [α-(R)-methyl- methoxycarbonyl etomidate] | – | 2.6 ± 0.3 min/(log mg/kg) | 5.2 ± 0.5 mg/kg | 670 ± 120 | 0.19 (0.17–0.22) min | – | – | –
12 | COC(=O)[C@@H](C)COC(=O)c1cncn1[C@H](C)c1ccccc1 [α-(S)-methyl- methoxycarbonyl etomidate] | – | 2.4 ± 0.3 min/(log mg/kg) | 3.1 ± 0.4 mg/kg | 530 ± 170 | 0.76 (0.58–1.0) min | – | – | –
13 | COC(=O)C(C)(C)COC(=O)c1cncn1[C@H](C)c1ccccc1 [α-dimethyl- methoxycarbonyl etomidate] | – | 9.8 ± 1.5 min/(log mg/kg) | 2.4 ± 1 mg/kg | 2240 ± 150 | 2.6 (1.9–4.2) min | – | – | –
14 | COC(=O)C[C@@H](C)OC(=O)c1cncn1[C@H](C)c1ccccc1 [β-(R)-methyl- methoxycarbonyl etomidate] | – | 2.9 ± 0.8 min/(log mg/kg) | 3.5 ± 0.6 mg/kg | 500 ± 24 | 0.91 (0.76–1.1) min | – | – | –
15 | COC(=O)C[C@H](C)OC(=O)c1cncn1[C@H](C)c1ccccc1 [β-(S)-methyl- methoxycarbonyl etomidate] | – | 2.0 ± 0.5 min/(log mg/kg) | 2.9 ± 0.3 mg/kg | 484 ± 12 | 0.72 (0.56–0.98) min | – | – | –
16 | COC(=O)CC(C)(C)OC(=O)c1cncn1C(C)c1ccccc1 (stereo not drawn) [β-dimethyl- methoxycarbonyl etomidate] | – | 11.9 ± 0.6 min/(log mg/kg) | 1.9 ± 0.3 mg/kg | 1580 ± 40 | 23.4 (19.6–28.9) min | – | – | –
17 | Cyclopropyl- methoxycarbonyl metomidate | – | 6.9 ± 0.5 min/(log mg/kg) | 0.69 ± 0.04 mg/kg | 420 ± 11 | 0.57 (0.49–0.68) min | – | – | –
18 | methyl-methoxycarbonyl metomidate | – | – | – | – | – | – | – | 2.7
19 | α-methyl-methoxycarbonyl etomidate | – | – | – | – | – | – | – | 1.7
20 | β-methyl-methoxycarbonyl etomidate | – | – | – | – | – | – | – | 1.2
